Molecular target: Serine/threonine-protein kinase ATR (Homo sapiens, UniProt Q13535)
Test: ATR Inhibition Assay
Procedure: Detection of ATR kinase activity utilized the Mobility shift assay to measure the phosphorylation of the substrate protein FAM-RAD17 (GL, Cat. No. 514318, Lot. No. P19042-MJ524315). The assay was developed and conducted at Chempartner. All the test compounds were dissolved in 100% DMSO at concentration of 20 mM, then prepare compounds and conducted the assay as follows: 1) Transfer […] 20 mM compound to 40 μl of 100% DMSO in a 96-well plate.2) Serially dilute the compound by transferring 20 μl to 60 μl of 100% DMSO in the next well and so forth for a total of 10 concentrations.3) Add 100 μl of 100% DMSO to two empty wells for no compound control and no enzyme control in the same 96-well plate. Mark the plate as source plate.4) Transfer 40 μl of compound from source plate to a new 384-well plate as the intermediate plate.5) Transfer 60 nl compounds to assay plate by Echo.6) Add ATR kinase (Eurofins, Cat. No. 14-953, Lot. No. D14 JP007N) into Kinase base buffer (50 mM HEPES, pH 7.5; 0.0015% Brij-35; 0.01% Triton) to prepare 2 enzyme solution, then add 10 μl of 2 enzyme solution to each well of the 384-well assay plate, incubate at room temperature for 10 min.7) Add FAM-RAD17 and ATP (Sigma, Cat. No. A7699-1G, CAS No. 987-65-5) in the kinase base buffer to prepare 2 peptide solution, then add 10 μl to the assay plate.8) Incubate at 28 C. for specified period of time. […]

Chain of Serine/threonine-protein kinase ATR (Q13535 whole entry): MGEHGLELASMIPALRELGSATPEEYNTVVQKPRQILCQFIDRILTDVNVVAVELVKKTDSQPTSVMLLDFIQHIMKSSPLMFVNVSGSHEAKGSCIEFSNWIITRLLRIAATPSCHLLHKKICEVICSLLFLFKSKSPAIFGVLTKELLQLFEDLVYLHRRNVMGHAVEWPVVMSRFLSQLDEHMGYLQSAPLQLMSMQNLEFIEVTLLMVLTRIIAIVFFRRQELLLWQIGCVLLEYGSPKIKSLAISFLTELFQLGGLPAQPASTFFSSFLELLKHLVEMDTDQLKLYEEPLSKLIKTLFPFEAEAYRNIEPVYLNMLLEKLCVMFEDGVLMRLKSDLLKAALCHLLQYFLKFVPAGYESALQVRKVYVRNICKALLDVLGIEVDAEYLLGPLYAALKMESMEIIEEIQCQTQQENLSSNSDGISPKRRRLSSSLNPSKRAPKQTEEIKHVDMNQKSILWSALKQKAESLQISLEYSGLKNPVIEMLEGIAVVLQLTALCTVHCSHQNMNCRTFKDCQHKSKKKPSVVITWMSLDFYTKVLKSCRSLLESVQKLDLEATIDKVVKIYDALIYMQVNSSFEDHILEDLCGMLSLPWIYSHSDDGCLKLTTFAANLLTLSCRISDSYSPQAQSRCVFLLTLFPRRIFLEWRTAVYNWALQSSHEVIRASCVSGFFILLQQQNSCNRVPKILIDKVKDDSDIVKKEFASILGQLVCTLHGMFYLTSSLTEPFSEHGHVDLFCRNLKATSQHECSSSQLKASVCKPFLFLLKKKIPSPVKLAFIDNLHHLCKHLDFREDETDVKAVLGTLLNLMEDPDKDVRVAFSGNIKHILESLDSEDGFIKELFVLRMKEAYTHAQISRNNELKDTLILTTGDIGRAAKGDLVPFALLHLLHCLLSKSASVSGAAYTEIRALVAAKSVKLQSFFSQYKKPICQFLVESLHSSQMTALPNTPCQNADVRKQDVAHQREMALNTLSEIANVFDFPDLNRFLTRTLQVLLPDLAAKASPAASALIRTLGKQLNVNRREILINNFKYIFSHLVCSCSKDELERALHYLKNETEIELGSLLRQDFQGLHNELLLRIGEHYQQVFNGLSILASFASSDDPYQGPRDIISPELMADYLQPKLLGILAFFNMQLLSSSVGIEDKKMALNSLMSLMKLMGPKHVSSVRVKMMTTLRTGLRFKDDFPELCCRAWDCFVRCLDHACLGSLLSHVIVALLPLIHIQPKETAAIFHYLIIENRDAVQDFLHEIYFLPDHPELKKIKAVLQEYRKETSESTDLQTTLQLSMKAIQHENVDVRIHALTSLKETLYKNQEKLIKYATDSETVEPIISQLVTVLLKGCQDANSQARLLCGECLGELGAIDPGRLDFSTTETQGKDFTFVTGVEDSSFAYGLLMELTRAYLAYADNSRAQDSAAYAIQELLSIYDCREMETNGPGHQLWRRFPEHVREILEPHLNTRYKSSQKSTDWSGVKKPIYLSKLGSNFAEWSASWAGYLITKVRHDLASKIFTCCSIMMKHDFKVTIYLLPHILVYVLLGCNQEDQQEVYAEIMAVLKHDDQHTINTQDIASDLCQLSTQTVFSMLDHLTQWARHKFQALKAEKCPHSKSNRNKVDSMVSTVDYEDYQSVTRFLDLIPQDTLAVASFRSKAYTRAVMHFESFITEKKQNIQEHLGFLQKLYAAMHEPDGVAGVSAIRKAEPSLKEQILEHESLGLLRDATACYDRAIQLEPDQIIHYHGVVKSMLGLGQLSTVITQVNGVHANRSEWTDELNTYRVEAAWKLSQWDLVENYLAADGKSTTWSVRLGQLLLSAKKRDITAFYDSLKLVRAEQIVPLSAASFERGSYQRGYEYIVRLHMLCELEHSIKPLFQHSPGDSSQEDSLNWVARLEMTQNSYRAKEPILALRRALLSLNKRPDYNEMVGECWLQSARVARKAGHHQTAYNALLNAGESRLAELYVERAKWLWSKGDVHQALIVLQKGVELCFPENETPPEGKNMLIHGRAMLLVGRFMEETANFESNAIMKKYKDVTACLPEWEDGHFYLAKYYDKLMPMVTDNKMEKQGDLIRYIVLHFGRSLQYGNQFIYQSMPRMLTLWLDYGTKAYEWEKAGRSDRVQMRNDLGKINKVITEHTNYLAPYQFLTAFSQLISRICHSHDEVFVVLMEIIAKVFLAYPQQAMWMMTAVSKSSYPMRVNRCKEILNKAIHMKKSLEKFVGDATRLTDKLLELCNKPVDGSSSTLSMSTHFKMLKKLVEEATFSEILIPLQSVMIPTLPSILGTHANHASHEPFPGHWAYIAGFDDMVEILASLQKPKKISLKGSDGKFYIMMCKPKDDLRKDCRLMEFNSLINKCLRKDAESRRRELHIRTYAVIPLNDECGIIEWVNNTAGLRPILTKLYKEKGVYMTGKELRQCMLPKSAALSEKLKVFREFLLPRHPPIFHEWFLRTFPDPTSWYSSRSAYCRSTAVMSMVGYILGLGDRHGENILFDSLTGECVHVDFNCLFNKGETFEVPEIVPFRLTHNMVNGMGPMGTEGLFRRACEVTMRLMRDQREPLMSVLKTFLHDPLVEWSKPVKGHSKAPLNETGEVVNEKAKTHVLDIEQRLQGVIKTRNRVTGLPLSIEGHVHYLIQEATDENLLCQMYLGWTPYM

Compound | IC50
Cc1cc(-c2nsc3c(N4CCCCS4(=O)=O)cc(N4CCOC[C@H]4C)nc23)[nH]n1 [US20230295166, Compound 82] | < 100 nM
C[C@@H]1COCCN1c1cc(-c2ccnn2C)c2c(Cl)nc(-c3ccn[nH]3)n2n1 [US20230295166, Compound 61] | < 100 nM

Reference: BindingDB's records for patent US20230295166 (Antengene Discovery, 2023)
